The results in this text go back to patent publication US7582789B2, “Ibandronate polymorph” (Hoffmann-La Roche Inc., priority 2005, dated 2009).

The term solubility denotes how much of the substance goes into solution per volume.

Data set [1] is described as follows: Relative thermodynamic stability of Ibandronate polymorphs. The following applies: polymorph A compared with polymorph B.
Data set [2] is described as follows: Solubility measurement of crystalline Ibandronate polymorphs in buffer solutions and water (titration). Format: physicochemical. The following applies: 25° C. The protocol: The solubility of the individual crystalline Ibandronate polymorphs A and B was measured for various solutions. Approximately 10 g of the corresponding polymorph A or B were suspended in three different buffer solutions at pH 2, pH 4 (Titrisol-buffer, citrate/HCl), at pH 7 (methenamine buffer, HCl) or in water. The suspension was stirred for 24 hours at 25° C. and was kept additonally 24 hours without stirring at the same temperature. Solubility was calculated by titration according to the following method.
The residue was filtered, 2 ml of the filtrate taken, 5 ml of Titriplex III solution were added and diluted with water to 100 ml. 2 ml of this solution were added to approximately 0.1 ml of xylenol orange indicator and the pH was adjusted to 6.5 by adding small portions of methenamine buffer solution or 0.1 M hydrochloric acid. The solution is titrated immediately with Th-DCTA-xylenol orange complex until the color changes from yellow to reddish-violet. The endpoint is determined photometrically.

As for `CCCCCN(C)CCC(O)(P(=O)([O-])O)P(=O)(O)O.O.[Na+]` [Polymorph A, 3-(N-methyl-N-pentyl) amino-1-hydroxypropane-1,1-diphosphonic acid monosodium salt monohydrate], the “thermodynamic stability relative to the other polymorph” value in data set [1] is “thermodynamically more stable”. Besides, the solubility in data set [2] (pH 2 Titrisol-buffer (citrate/HCl), stirred 24 h + 24 h without stirring) was 280 mg/mL; in data set [2] (pH 4 Titrisol-buffer (citrate/HCl), stirred 24 h + 24 h without stirring) it was 276 mg/mL; in data set [2] (pH 7 methenamine buffer/HCl, stirred 24 h + 24 h without stirring) it was 292 mg/mL; in data set [2] (water, stirred 24 h + 24 h without stirring), 278 mg/mL.

In the case of `CCCCCN(C)CCC(O)(P(=O)([O-])O)P(=O)(O)O.O.[Na+]` [Polymorph B, 3-(N-methyl-N-pentyl) amino-1-hydroxypropane-1,1-diphosphonic acid monosodium salt monohydrate], the solubility was 274 mg/mL in data set [2] (pH 2 Titrisol-buffer (citrate/HCl), under at least partial conversion to polymorph A); 278 mg/mL in data set [2] (pH 4 Titrisol-buffer (citrate/HCl), under at least partial conversion to polymorph A); 299 mg/mL in data set [2] (pH 7 methenamine buffer/HCl, under at least partial conversion to polymorph A); “about 279 g/l” in data set [2] (water, under at least partial conversion to polymorph A, listed as Ibandronate polymorph B, monosodium salt monohydrate); 279 mg/mL in data set [2] (water, under at least partial conversion to polymorph A, monosodium salt monohydrate).
